Legend:
TRX-h3 = target: T1, TRX-h3 (Arabidopsis thaliana, UniProt Q42403); assay: insulin reduction assay (turbidity, A650); format: biochemical; conditions: covalent; 20 uM TRX pre-incubated with 80 uM OPDA, RT; assay pH 7.2, 1 mM DTT
T1 construct: gene TRX3; recombinant His-tagged, E. coli NiCo21(DE3); cytosolic, no transit peptide
T1 sequence (Q42403 1-118): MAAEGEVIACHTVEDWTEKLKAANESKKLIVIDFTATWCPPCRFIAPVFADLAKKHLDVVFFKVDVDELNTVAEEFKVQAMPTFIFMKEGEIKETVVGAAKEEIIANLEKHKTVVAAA

TRX-f1 [1] = target: T2, TRX-f1 (Arabidopsis thaliana, UniProt Q9XFH8); assay: insulin reduction assay (turbidity, A650); format: biochemical; conditions: covalent; 20 uM TRX pre-incubated with 80 uM OPDA, RT; assay pH 7.2, 1 mM DTT
T2 construct: gene At3g02730; recombinant His-tagged, without transit peptide, E. coli NiCo21(DE3)
T2 sequence (Q9XFH8 58-178): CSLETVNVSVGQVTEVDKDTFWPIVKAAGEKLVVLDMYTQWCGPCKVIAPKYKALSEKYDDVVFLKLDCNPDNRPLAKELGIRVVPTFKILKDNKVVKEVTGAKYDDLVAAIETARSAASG

TRX-m4 [2] = target: T3, TRX-m4 (Arabidopsis thaliana, UniProt Q9SEU6); assay: intrinsic tryptophan fluorescence quenching; format: binding; conditions: covalent; 15 uM reduced protein, 150 uM OPDA, 3 h, RT, 50 mM KPi pH 7.2
T3 construct: gene At3g15360; recombinant His-tagged, without transit peptide, E. coli NiCo21(DE3)
T3 sequence (Q9SEU6 83-193): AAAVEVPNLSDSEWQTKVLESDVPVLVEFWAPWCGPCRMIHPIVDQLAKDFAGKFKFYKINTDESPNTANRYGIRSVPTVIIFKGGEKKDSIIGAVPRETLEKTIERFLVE

TRX-f1 [3] = target: T2, TRX-f1; assay: intrinsic tryptophan fluorescence quenching; format: binding; conditions: covalent; 15 uM reduced protein, 150 uM OPDA, 3 h, RT, 50 mM KPi pH 7.2
TRX-m4 [4] = target: T3, TRX-m4; assay: insulin reduction assay (turbidity, A650); format: biochemical; conditions: covalent; 20 uM TRX pre-incubated with 80 uM OPDA, RT; assay pH 7.2, 1 mM DTT

residual activity (TRX-h3): 47%
residual activity (TRX-f1 [1]): 67%
change of maximal fluorescence intensity (TRX-m4 [2]): –16.3 relative units
change of maximal fluorescence intensity (TRX-f1 [3]): –14.5 relative units
residual activity (TRX-m4 [4]): 71%
SMILES: CC/C=C\C[C@@H]1C(=O)C=C[C@@H]1CCCCCCCC(=O)O [OPDA]

Source: publication PMC13278354, “The competitive interplay of 12‐oxophytodienoic acid (OPDA), protein thiols, and glutathione” (The Febs Journal, 2026)
